According to ChEMBL document CHEMBL3885861, “Open TG-GATES”:

Species: Rattus norvegicus
Experiment: Open TG-GATES - Regimen: Single
Format: toxicity, organism-based, Sprague-Dawley
Parameters: regimen Single, gender Male, age 6 weeks
Conditions: in vivo, po, 0 mg/kg, route gavage, dose level Control; for APTT / Bas / Eos / Fbg / Hb / Ht / Lym / MCH / MCHC / MCV / Mono / Neu / PT / Plat / RBC / Ret / WBC: tissue Blood; for KIDNEY_L / KIDNEY_R / KIDNEY_TOTAL: tissue Kidney; for LIVER: tissue Liver; for A/G / ALP / ALT / AST / BUN / CRE / Ca / Cl / DBIL / GLC / IP / K / LDH / Na / PL / RALB / TBIL / TC / TG / TP / gamma-GTP: tissue Plasma

CN(C/C=C/C#CC(C)(C)C)Cc1cccc2ccccc12 [TERBINAFINE]
TERMINAL_BW (3 h): 225.4 g | APTT (3 h): 18.8 s | Bas (3 h): 0.6% | Eos (3 h): 0.8% | Fbg (3 h): 226 mg/dL | Hb (3 h): 13.2 g/dL | Ht (3 h): 39.2% | Lym (3 h): 81.8% | MCH (3 h): 21.8 pg | MCHC (3 h): 33.7% | MCV (3 h): 64.7 fL | Mono (3 h): 2.4% | Neu (3 h): 13.6% | PT (3 h): 12.1 s | Plat (3 h): 121.7 x10_4/uL | RBC (3 h): 606.2 x10_4/ul | Ret (3 h): 7.5% | WBC (3 h): 116.5 x10_2/uL | KIDNEY_L (3 h): 1.1 g | KIDNEY_R (3 h): 1 g | KIDNEY_TOTAL (3 h): 2.1 g | LIVER (3 h): 10.9 g | A/G (3 h): 1.7 | ALP (3 h): 1027 IU/L | ALT (3 h): 40.4 IU/L | AST (3 h): 72.4 IU/L | BUN (3 h): 12 mg/dL | CRE (3 h): 0.4 mg/dL | Ca (3 h): 10.8 mg/dL | Cl (3 h): 101.8 meq/L | DBIL (3 h): 0.074 mg/dL | GLC (3 h): 202.2 mg/dL | IP (3 h): 9 mg/dL | K (3 h): 3.7 meq/L | LDH (3 h): 154.4 IU/L | Na (3 h): 140.8 meq/L | PL (3 h): 151.8 mg/dL | RALB (3 h): 3.4 g/dL | TBIL (3 h): 0.1 mg/dL | TC (3 h): 85.4 mg/dL | TG (3 h): 68.4 mg/dL | TP (3 h): 5.5 g/dL | gamma-GTP (3 h): 1 IU/L | TERMINAL_BW (6 h): 222.8 g | APTT (6 h): 19 s | Bas (6 h): 0.6% | Eos (6 h): 0.8% | Fbg (6 h): 229.4 mg/dL | Hb (6 h): 13.7 g/dL | Ht (6 h): 40.5% | Lym (6 h): 72.6% | MCH (6 h): 21.1 pg | MCHC (6 h): 33.8% | MCV (6 h): 62.3 fL | Mono (6 h): 3.2% | Neu (6 h): 22.4% | PT (6 h): 12 s | Plat (6 h): 132.2 x10_4/uL | RBC (6 h): 650.8 x10_4/ul | Ret (6 h): 6.6% | WBC (6 h): 113 x10_2/uL | KIDNEY_L (6 h): 1 g | KIDNEY_R (6 h): 1 g | KIDNEY_TOTAL (6 h): 2 g | LIVER (6 h): 9.9 g | A/G (6 h): 1.7 | ALP (6 h): 967.6 IU/L | ALT (6 h): 34.8 IU/L | AST (6 h): 69.6 IU/L | BUN (6 h): 10.6 mg/dL | CRE (6 h): 0.4 mg/dL | Ca (6 h): 10.8 mg/dL | Cl (6 h): 102.8 meq/L | DBIL (6 h): 0.074 mg/dL | GLC (6 h): 197.2 mg/dL | IP (6 h): 8.8 mg/dL | K (6 h): 3.8 meq/L | LDH (6 h): 147.4 IU/L | Na (6 h): 140.6 meq/L | PL (6 h): 133.4 mg/dL | RALB (6 h): 3.5 g/dL | TBIL (6 h): 0.1 mg/dL | TC (6 h): 76.2 mg/dL | TG (6 h): 59.2 mg/dL | TP (6 h): 5.5 g/dL | gamma-GTP (6 h): 1 IU/L | TERMINAL_BW (9 h): 219.8 g | APTT (9 h): 18.2 s | Bas (9 h): 0.6% | Eos (9 h): 1% | Fbg (9 h): 229 mg/dL | Hb (9 h): 13.4 g/dL | Ht (9 h): 39.8% | Lym (9 h): 73.8% | MCH (9 h): 20.9 pg | MCHC (9 h): 33.5% | MCV (9 h): 62.5 fL | Mono (9 h): 1.8% | Neu (9 h): 22.4% | PT (9 h): 12.2 s | Plat (9 h): 119.3 x10_4/uL | RBC (9 h): 637.4 x10_4/ul | Ret (9 h): 6.8% | WBC (9 h): 89.2 x10_2/uL | KIDNEY_L (9 h): 1 g | KIDNEY_R (9 h): 1 g | KIDNEY_TOTAL (9 h): 2 g | LIVER (9 h): 9.3 g | A/G (9 h): 1.6 | ALP (9 h): 810.4 IU/L | ALT (9 h): 31 IU/L | AST (9 h): 62.8 IU/L | BUN (9 h): 11.8 mg/dL | CRE (9 h): 0.4 mg/dL | Ca (9 h): 10.5 mg/dL | Cl (9 h): 103.6 meq/L | DBIL (9 h): 0.066 mg/dL | GLC (9 h): 204.2 mg/dL | IP (9 h): 9.8 mg/dL | K (9 h): 3.9 meq/L | LDH (9 h): 167.6 IU/L | Na (9 h): 141.4 meq/L | PL (9 h): 136.4 mg/dL | RALB (9 h): 3.4 g/dL | TBIL (9 h): 0.1 mg/dL | TC (9 h): 70.2 mg/dL | TG (9 h): 62 mg/dL | TP (9 h): 5.6 g/dL | gamma-GTP (9 h): 1.4 IU/L | TERMINAL_BW (24 h): 238.7 g | APTT (24 h): 18.9 s | Bas (24 h): 0.8% | Eos (24 h): 1% | Fbg (24 h): 236.8 mg/dL | Hb (24 h): 13.2 g/dL | Ht (24 h): 39.1% | Lym (24 h): 79.2% | MCH (24 h): 21.6 pg | MCHC (24 h): 33.7% | MCV (24 h): 64.3 fL | Mono (24 h): 2.8% | Neu (24 h): 16.4% | PT (24 h): 11.8 s | Plat (24 h): 132.1 x10_4/uL | RBC (24 h): 608.4 x10_4/ul | Ret (24 h): 6.3% | WBC (24 h): 97.8 x10_2/uL | KIDNEY_L (24 h): 1 g | KIDNEY_R (24 h): 1 g | KIDNEY_TOTAL (24 h): 2 g | LIVER (24 h): 11.6 g | A/G (24 h): 1.6 | ALP (24 h): 986.4 IU/L | ALT (24 h): 36.4 IU/L | AST (24 h): 74.4 IU/L | BUN (24 h): 15.4 mg/dL | CRE (24 h): 0.4 mg/dL | Ca (24 h): 10.9 mg/dL | Cl (24 h): 103.6 meq/L | DBIL (24 h): 0.1 mg/dL | GLC (24 h): 196.8 mg/dL | IP (24 h): 7.4 mg/dL | K (24 h): 4.2 meq/L | LDH (24 h): 189.4 IU/L | Na (24 h): 141.2 meq/L | PL (24 h): 152 mg/dL | RALB (24 h): 3.5 g/dL | TBIL (24 h): 0.2 mg/dL | TC (24 h): 74.4 mg/dL | TG (24 h): 107.8 mg/dL | TP (24 h): 5.7 g/dL | gamma-GTP (24 h): 1.6 IU/L
